Results reported in patent US10766869B2, “Triazoles for the treatment of demyelinating dieases” (Vertex Pharmaceuticals Incorporated, priority 2015, dated 2020).
Where two headings read alike, the source gives them in different places.

System: primary rat mixed cortical cells
Assay: In vitro myelination assay (MBP positive myelin strands, fold myelin pixels above background)
Type: cell-based
Conditions: Rattus norvegicus; for fold induction at 1 µM: 1.0 μM compound; for fold induction at 10 µM: 10.0 μM compound
Summary of the method: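 Myelination read as total MBP-immunopositive strand pixels per well, imaged at 10× after fixation on day 14 and expressed relative to untreated wells, at 1.0 and 10.0 μM. Cells: dissociated postnatal day 1 rat cortex, cultured two weeks with compound, re-dosed at days 6 and 10.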

[1] = relative to baseline of no added compound, read-out: Fold myelin pixels above background, 1.0 μM
[2] = relative to baseline of no added compound, read-out: Fold myelin pixels above background, 10.0 μM
[3] = relative to baseline of no added compound, read-out: Fold myelin pixels above background
[4] = read-out: Fold myelin pixels above background relative to baseline of no added compound

| Structure (SMILES) | fold induction at 1 µM [1] | fold induction at 10 µM [2] | fold induction at 1 µM [3] | fold induction at 10 µM [3] | also measured |
| --- | --- | --- | --- | --- | --- |
| Cc1cc(Nc2ncn(-c3cc(F)cc(F)c3)n2)cc(C2CNC(=O)O2)c1 (stereo not shown) [Compound 295, 5-[3-[[1-(3,5-difluorophenyl)-1,2,4-triazol-3-yl]amino]-5-methyl-phenyl]oxazolidin-2-one] | 10 to 100 | 1 to 10 | – | – | – |
| Cc1cc(Nc2ncn(-c3cc(F)cc(F)c3)n2)cc(N2CC(N3CCOC(C)(C)C3)C2)c1 [Compound 602, 1-(3,5-difluorophenyl)-N-[3-[3-(2,2-dimethylmorpholin-4-yl)azetidin-1-yl]-5-methyl-phenyl]-1,2,4-triazol-3-amine] | – | – | 1 to 10 | 1 to 10 | – |
| Cc1cc(N2CCN(C3COC3)CC2)cc(Nc2ncn(-c3cc(F)cc(F)c3)n2)c1F [Compound 587, 1-(3,5-difluorophenyl)-N-[2-fluoro-3-methyl-5-[4-(oxetan-3-yl)piperazin-1-yl]phenyl]-1,2,4-triazol-3-amine] | – | – | 1 to 10 | 10 to 100 | – |
| Cc1cc(Nc2ncn(-c3cc(F)cc(F)c3)n2)cc(N(C)C2COC2)c1 [Compound 197, N3-[1-(3,5-difluorophenyl)-1,2,4-triazol-3-yl]-N1,5-dimethyl-N1-(oxetan-3-yl)benzene-1,3-diamine] | 100 to 1000 | 100 to 1000 | – | – | – |
| Fc1cc(Nc2ncn(-c3ccccn3)n2)cc(N2CCN(C3COC3)CC2)c1 [Compound 642, N-[3-fluoro-5-[4-(oxetan-3-yl)piperazin-1-yl]phenyl]-1-(2-pyridyl)-1,2,4-triazol-3-amine] | – | – | 1 to 10 | 10 to 100 | – |
| COc1cc(Nc2ncn(-c3cc(F)cc(F)c3)n2)nc(N2CCN(C3COC3)CC2)c1 [Compound 599, N-[1-(3,5-difluorophenyl)-1,2,4-triazol-3-yl]-4-methoxy-6-[4-(oxetan-3-yl)piperazin-1-yl]pyridin-2-amine] | – | – | 10 to 100 | 10 to 100 | – |
| CN1CCN(c2cc(Nc3ncn(-c4ccncc4)n3)cc(C(F)(F)F)c2)CC1 [Compound 13, N-[3-(4-methylpiperazin-1-yl)-5-(trifluoromethyl)phenyl]-1-(4-pyridyl)-1,2,4-triazol-3-amine] | 100 to 1000 | ≤ 1 | – | – | – |
| Fc1cc(Nc2ncn(-c3ccccc3)n2)cc(C2CCNC2)c1 (stereo not shown) [Compound 452, N-(3-fluoro-5-pyrrolidin-3-yl-phenyl)-1-phenyl-1,2,4-triazol-3-amine] | – | – | 10 to 100 | ≤ 1 | – |
| Cc1cc(Nc2ncn(-c3cc(F)cc(F)c3)n2)cc(N2CCN3CCC2C3)c1 (stereo not shown) [Compound 889, N-[3-(1,4-diazabicyclo[3.2.1]octan-4-yl)-5-methyl-phenyl]-1-(3,5-difluorophenyl)-1,2,4-triazol-3-amine] | – | – | – | – | fold induction at 1 µM [4]: 10 to 100; fold induction at 10 µM [4]: ≤ 1 |
| Cc1cc(Nc2ncn(-c3cccc(F)c3)n2)c(F)c(N2CCN(C3COC3)CC2)c1 [Compound 955, N-[2-fluoro-5-methyl-3-[4-(oxetan-3-yl)piperazin-1-yl]phenyl]-1-(3-fluorophenyl)-1,2,4-triazol-3-amine] | – | – | – | – | fold induction at 1 µM [4]: 10 to 100; fold induction at 10 µM [4]: 1 to 10 |
| CN1CCN(c2cc(F)cc(Nc3ncn(-c4ccc(F)cc4F)n3)c2)CC1 [Compound 450, 1-(2,4-difluorophenyl)-N-[3-fluoro-5-(4-methylpiperazin-1-yl)phenyl]-1,2,4-triazol-3-amine] | – | – | ≤ 1 | ≤ 1 | – |
| Cc1cc(Nc2ncn(-c3ccccc3)n2)cc(C2(F)CCN(C3COC3)C2)c1 (stereo not shown) [Compound 18, N-[3-[3-fluoro-1-(oxetan-3-yl)pyrrolidin-3-yl]-5-methyl-phenyl]-1-phenyl-1,2,4-triazol-3-amine] | 1000 to 10000 | 1 to 10 | – | – | – |
| Cc1cc(Nc2ncn(-c3ccc(F)c(F)c3)n2)cc(N2CCOCC2)c1 [Compound 43, 1-(3,4-difluorophenyl)-N-(3-methyl-5-morpholino-phenyl)-1,2,4-triazol-3-amine] | 100 to 1000 | 100 to 1000 | – | – | – |
| Cc1cc(Nc2ncn(-c3ccc(F)c(F)c3)n2)cc(OC2CCCN(C3COC3)C2)c1 (stereo not shown) [Compound 590, 1-(3,4-difluorophenyl)-N-[3-methyl-5-[[1-(oxetan-3-yl)-3-piperidyl]oxy]phenyl]-1,2,4-triazol-3-amine] | – | – | 10 to 100 | 1 to 10 | – |
| Cc1cc(Nc2ncn(-c3cc(F)cc(F)c3)n2)cc(N2CCN(CCCN(C)C)CC2)c1 [Compound 747, 1-(3,5-difluorophenyl)-N-[3-[4-[3-(dimethylamino)propyl]piperazin-1-yl]-5-methyl-phenyl]-1,2,4-triazol-3-amine] | – | – | ≤ 1 | ≤ 1 | – |
| Cc1cc(Nc2ncn(-c3cc(F)cc(F)c3)n2)cc(N2CCN(C3CCCN(C)C3)CC2)c1 (stereo not shown) [Compound 892, 1-(3,5-difluorophenyl)-N-[3-methyl-5-[4-(1-methyl-3-piperidyl)piperazin-1-yl]phenyl]-1,2,4-triazol-3-amine] | – | – | – | – | fold induction at 1 µM [4]: 1 to 10; fold induction at 10 µM [4]: ≤ 1 |
| Cc1cc(Nc2ncn(-c3cc(F)cc(F)c3)n2)cc(N2CCC3(CC2)COC3)c1 [Compound 279, 1-(3,5-difluorophenyl)-N-[3-methyl-5-(2-oxa-7-azaspiro[3.5]nonan-7-yl)phenyl]-1,2,4-triazol-3-amine] | 100 to 1000 | 100 to 1000 | – | – | – |
| CCN(CC)CCN1CCN(c2cc(C)cc(Nc3ncn(-c4cc(F)cc(F)c4)n3)c2)CC1 [Compound 987, N-[3-[4-[2-(diethylamino)ethyl]piperazin-1-yl]-5-methyl-phenyl]-1-(3,5-difluorophenyl)-1,2,4-triazol-3-amine] | – | – | – | – | fold induction at 1 µM [4]: 1 to 10; fold induction at 10 µM [4]: ≤ 1 |
| COCC1CN(c2cc(C)cc(Nc3ncn(-c4cc(F)cc(F)c4)n3)c2)C1 [Compound 116, 1-(3,5-difluorophenyl)-N-[3-[3-(methoxymethyl)azetidin-1-yl]-5-methyl-phenyl]-1,2,4-triazol-3-amine] | ≤ 1 | ≤ 1 | – | – | – |
| [2H]C1([2H])N(C(C)=O)C([2H])([2H])C([2H])([2H])N(c2cc(C)cc(Nc3ncn(-c4cc(F)cc(F)c4)n3)c2)C1([2H])[2H] [Compound 1044, 1-[2,2,3,3,5,5,6,6-octadeuterio-4-[3-[[1-(3,5-difluorophenyl)-1,2,4-triazol-3-yl]amino]-5-methyl-phenyl]piperazin-1-yl]ethanone] | – | – | – | – | fold induction at 1 µM [4]: 1 to 10; fold induction at 10 µM [4]: 1 to 10 |
| Cc1cc(Nc2ncn(-c3ccc(F)c(F)c3)n2)cc(N2CC3(C2)CN(C(C)C)C3)c1 [Compound 977, 1-(3,4-difluorophenyl)-N-[3-(2-isopropyl-2,6-diazaspiro[3.3]heptan-6-yl)-5-methyl-phenyl]-1,2,4-triazol-3-amine] | – | – | – | – | fold induction at 1 µM [4]: 1 to 10; fold induction at 10 µM [4]: ≤ 1 |
| Cc1cc(Nc2ncn(-c3ccc(F)c(F)c3)n2)cc(N2CCN(CC(F)(F)F)CC2)c1 [Compound 231, 1-(3,4-difluorophenyl)-N-[3-methyl-5-[4-(2,2,2-trifluoroethyl)piperazin-1-yl]phenyl]-1,2,4-triazol-3-amine] | 100 to 1000 | 100 to 1000 | – | – | – |
| COc1cc(Nc2ncn(-c3ccc(F)cc3)n2)cc(N2CCN(C3COC3)CC2)c1 [Compound 102, 1-(4-fluorophenyl)-N-[3-methoxy-5-[4-(oxetan-3-yl)piperazin-1-yl]phenyl]-1,2,4-triazol-3-amine] | 100 to 1000 | 1 to 10 | – | – | – |
